Source: paper PMC9028278, “2-Pyridine Carboxaldehyde for Semi-Automated Soft Spot Identification in Cyclic Peptides” (International Journal of Molecular Sciences, 2022)
Where a SMILES comes first, the peptide text is derived from it. Bridges are numbered along the chain shown (N, C = ends).

Assay: Soft spot identification time course in dilute rat intestinal luminal contents with 2PCA derivatization
Format: in vitro ADME
Settings: 10 µM peptide; for metabolic soft spot: most N-terminal residue of the ring-opened (singly hydrolyzed) peptide, assigned through the 2PCA tag: dilute rat intestinal luminal contents (fasted male SD rats, duodenum and jejunum), 0.02 mg/mL total protein in 5 mM pH 7.4 phosphate buffer, 37 °C, aliquots at 0, 2.5, 10, 20 min, quenched with acetonitrile containing 20 mM 2PCA, overnight at room temperature, LC-MS/MS (targeted MS/MS, AIF, background subtraction)
Method: This three-pronged approach was used to analyze two commercially available cyclic peptides, JB1 and somatostatin, in a typical soft spot identification workflow with automated sample preparation. Both JB1, a 12-mer cyclic peptide with the sequence CYAAPLKPAKSC, and somatostatin, a 14-mer cyclic peptide with the sequence AGCKNFFWKTFTSC (disulfide bound between Cys residues), were subjected to incubation in dilute rat intestinal luminal contents matrix on a liquid handling system. To facilitate unsupervised sample preparation, the enzymatic activity of the matrix was quenched with 1 volume of acetonitrile containing 20 mM 2PCA and incubated overnight. The following day, the samples were injected into the MS for analysis directly with the approach outlined in Figure 3. To increase the throughput and proportion of ‘hands-off’ time, the derivatization step was not quenched, and excess reagent or Schiff bases formed during the incubation were not scavenged by hydrazide (as was performed during the selectivity experiments on the tryptic HeLa lysate). While omitting the hydrazide scavenging step could introduce a decrease in sensitivity due to Schiff base formation on basic sites, the concentrations typically used in in vitro incubations ensure that minor decreases in sensitivity will not have deleterious effects on the workflow as a whole. In this case, the liquid handler utilized was unable to manipulate magnetic beads, but future experiments will incorporate a magnetic-bead-compatible liquid handler to incorporate the scavenging step. The method described has the potential to create more than one 2PCA adduct on a given peptide with basic sites, but the utilization of a targeted approach for the singly modified peptide as outlined here circumvents that complication and ensures MS/MS sampling of the peptide of interest.
HeLa S9 lysate tryptic digest was purchased from ThermoFisher (San Jose, CA, USA). […]
The flushed intestinal luminal contents from fasted rats were pooled and the concentration of protein was determined. […]

| Compound | metabolic soft spot: most N-terminal residue of the ring-opened (singly hydrolyzed) peptide, assigned through the 2PCA tag | secondary metabolite (subsequent hydrolysis step after ring opening) (dilute rat intestinal luminal contents, 0.02 mg/mL protein, pH 7.4, 37 °C, 10 min time point, background subtracted AIF XIC of m/z 107.0609) |
| --- | --- | --- |
| CC(C)C[C@@H]1NC(=O)[C@@H]2CCCN2C(=O)[C@H](C)NC(=O)[C@H](C)NC(=O)[C@H](Cc2ccc(O)cc2)NC(=O)[C@@H](N)CSSC[C@@H](C(=O)O)NC(=O)[C@H](CO)NC(=O)[C@H](CCCCN)NC(=O)[C@H](C)NC(=O)[C@@H]2CCCN2C(=O)[C@H](CCCCN)NC1=O [JB1] (H-CYAAPLKPAKSC-OH; disulfide 1-12) | serine | clipping of the C-terminal Lysine residue |
| C[C@H](N)C(=O)NCC(=O)N[C@H]1CSSC[C@@H](C(=O)O)NC(=O)[C@H](CO)NC(=O)[C@H]([C@@H](C)O)NC(=O)[C@H](Cc2ccccc2)NC(=O)[C@H]([C@@H](C)O)NC(=O)[C@H](CCCCN)NC(=O)[C@H](Cc2c[nH]c3ccccc23)NC(=O)[C@H](Cc2ccccc2)NC(=O)[C@H](Cc2ccccc2)NC(=O)[C@H](CC(N)=O)NC(=O)[C@H](CCCCN)NC1=O [somatostatin] | first threonine (followed by phenylalanine) | – |
